The values that follow come from BindingDB's records for doi:10.1021/cc100076k (Universidade Federal De SaO Carlo, 2010).

pIC50: −log10 of the molar value.

The target of the test is T1, Cathepsin L2 (Homo sapiens, UniProt O60911).
T1 sequence (O60911 whole entry): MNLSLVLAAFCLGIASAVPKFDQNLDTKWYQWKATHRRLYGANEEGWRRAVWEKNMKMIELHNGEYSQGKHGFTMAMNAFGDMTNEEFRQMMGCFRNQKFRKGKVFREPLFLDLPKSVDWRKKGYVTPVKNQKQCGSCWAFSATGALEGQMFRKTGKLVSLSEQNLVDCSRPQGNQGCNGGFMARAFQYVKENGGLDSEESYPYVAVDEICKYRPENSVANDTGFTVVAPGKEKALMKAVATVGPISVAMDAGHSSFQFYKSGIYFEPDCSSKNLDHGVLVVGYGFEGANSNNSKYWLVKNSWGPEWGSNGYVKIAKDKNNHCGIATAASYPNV
The test can be described thus: Inhibition Activity Assay. The conditions noted are these: pH 5.5; 27 °C. The source says: Recombinant human cathepsin V was expressed and purified as described previously.

As usually defined, the pIC50 is the IC50 on a negative log10 scale, so that one unit is a factor of ten. The low end stands for a large IC50, the high end for a small IC50. For `COc1cc(OC)c2c(=O)cc(-c3ccc(-c4ccccc4)cc3)oc2c1` [Flavonid, 6[2,6]], the pIC50 is less than 4.30. For the molecule `COc1ccc2oc(-c3ccc(-c4ccccc4)cc3)cc(=O)c2c1` [Flavonid, 6[4,6]], the negative-log IC50 (pIC50) is 4.72. `COc1cccc(Cl)c1-c1cc(=O)c2ccc(F)cc2o1` [Flavonid, 6b] gave a pIC50 of less than 4.30. Take `O=c1cc(-c2ccc(-c3ccccc3)cc2)oc2ccc(F)cc12` [Flavonid, 6[3,6]]: the pIC50 was 5.54.

`COc1ccc(-c2cc(=O)c3cc(OC)ccc3o2)c(OC)c1` [Flavonid, 6[4,2]] gave a pIC50 of less than 4.30.

`COc1ccc(-c2cc(=O)c3cc(F)ccc3o2)c(OC)c1OC` [Flavonid, 6[3,3]]: the negative-log IC50 (pIC50) was 5.39. For the molecule `COc1cccc(Cl)c1/C=C/C(=O)c1ccc(F)cc1O` [Flavonid, 5b], the pIC50 is less than 4.30. The molecule `O=c1cc(-c2c(F)cccc2Cl)oc2cc(F)ccc12` [Flavonid, 6e] had a pIC50 of less than 4.30. Take `COc1cc(OC)c2c(=O)cc(-c3ccc(OC)c(OC)c3OC)oc2c1` [Flavonid, 6[2,3]]: the pIC50 is less than 4.30. The value for `COc1ccc(-c2cc(=O)c3cc(F)ccc3o2)c(OC)c1` [Flavonid, 6[3,2]] was 5.80. The value for `COc1ccc(C(=O)/C=C/c2ccc(OC)cc2OC)c(O)c1` [Flavonid, 5a] was less than 4.30; that for `COc1ccc(-c2cc(=O)c3cc(F)ccc3o2)cc1` [Flavonid, 6[3,1]] was 6.10. Under `COc1ccc2oc(-c3ccc(OC)c(OC)c3OC)cc(=O)c2c1` [Flavonid, 6[4,3]] stands less than 4.30. As to `COc1ccc(-c2cc(=O)c3cc(Br)ccc3o2)c(OC)c1` [Flavonid, 6d], the pIC50 is 5.92.

`COc1ccc(-c2cc(=O)c3cc(OC)ccc3o2)cc1` [6-methoxy-2-(4-methoxyphenyl)-1-benzopyran-4-one] showed a negative-log IC50 (pIC50) of 4.92. For `COc1ccc(-c2cc(=O)c3c(OC)cc(OC)cc3o2)c(OC)c1` [Flavonid, 6[2,2]], the negative-log IC50 (pIC50) was 4.72. Against the preceding molecule, the pIC50 is 0.20 log units lower.
